Among the data in patent US10766879B2, “Pyrimidine derivatives as kinase inhibitors and their therapeutical applications” (NantBioScience, Inc., priority 2015, dated 2020) are GI50, inhibition and EC50 values, retold here.

For one assay, the system named is Kato III. In words: CellTiterblue viability, 72 hr, Kato III. The note with it: Homo sapiens, Kato III cells. Format: cell-based. How it is done: (§1) A number of studies were performed to analyze the consequences of tyrosine kinase inhibition in cell lines. To do this, 1000 cells are seeded in 27 μl/well in 384-well microplates, which are then placed in a humidified CO2 incubator at 37° C. overnight. The next day, 3 μl/well of 10× concentrated drug is added and the plates are returned to the incubator for 72 hr. After 72 hr incubation, plates are removed and […] CellTiterblue (Promega) viability reagent is added. Plates are returned to the incubator for 3 hr, after which it is fluorescence measurements are read on the Victor X3 plate reader (Perkin Elmer). Data are analyzed using Excel (Microsoft), and GI50 values are determined using Prism (Graphpad).
Background: The colour change of resazurin is a common sign of viable cells or microbes.

A further assay deals with T1, Alk kinase (Homo sapiens, UniProt Q9UM73).
T1 construct: purchased Millipore (KinaseProfiler Service)
In words: KinaseProfiler kinase inhibition assay, Alk. In kind it is biochemical. The conditions noted are these: 1 μM compound.

A further assay has as its target T2, KDR kinase (Homo sapiens, UniProt P35968).
T2 construct: purchased Millipore (KinaseProfiler Service)
In words: KinaseProfiler kinase inhibition assay, KDR. In kind it is biochemical. The conditions noted are these: 1 μM compound.

For the next assay, the target named is T3, Ret kinase (Homo sapiens, UniProt P07949).
T3 construct: purchased Millipore (KinaseProfiler Service)
T3 sequence (P07949 29-1114): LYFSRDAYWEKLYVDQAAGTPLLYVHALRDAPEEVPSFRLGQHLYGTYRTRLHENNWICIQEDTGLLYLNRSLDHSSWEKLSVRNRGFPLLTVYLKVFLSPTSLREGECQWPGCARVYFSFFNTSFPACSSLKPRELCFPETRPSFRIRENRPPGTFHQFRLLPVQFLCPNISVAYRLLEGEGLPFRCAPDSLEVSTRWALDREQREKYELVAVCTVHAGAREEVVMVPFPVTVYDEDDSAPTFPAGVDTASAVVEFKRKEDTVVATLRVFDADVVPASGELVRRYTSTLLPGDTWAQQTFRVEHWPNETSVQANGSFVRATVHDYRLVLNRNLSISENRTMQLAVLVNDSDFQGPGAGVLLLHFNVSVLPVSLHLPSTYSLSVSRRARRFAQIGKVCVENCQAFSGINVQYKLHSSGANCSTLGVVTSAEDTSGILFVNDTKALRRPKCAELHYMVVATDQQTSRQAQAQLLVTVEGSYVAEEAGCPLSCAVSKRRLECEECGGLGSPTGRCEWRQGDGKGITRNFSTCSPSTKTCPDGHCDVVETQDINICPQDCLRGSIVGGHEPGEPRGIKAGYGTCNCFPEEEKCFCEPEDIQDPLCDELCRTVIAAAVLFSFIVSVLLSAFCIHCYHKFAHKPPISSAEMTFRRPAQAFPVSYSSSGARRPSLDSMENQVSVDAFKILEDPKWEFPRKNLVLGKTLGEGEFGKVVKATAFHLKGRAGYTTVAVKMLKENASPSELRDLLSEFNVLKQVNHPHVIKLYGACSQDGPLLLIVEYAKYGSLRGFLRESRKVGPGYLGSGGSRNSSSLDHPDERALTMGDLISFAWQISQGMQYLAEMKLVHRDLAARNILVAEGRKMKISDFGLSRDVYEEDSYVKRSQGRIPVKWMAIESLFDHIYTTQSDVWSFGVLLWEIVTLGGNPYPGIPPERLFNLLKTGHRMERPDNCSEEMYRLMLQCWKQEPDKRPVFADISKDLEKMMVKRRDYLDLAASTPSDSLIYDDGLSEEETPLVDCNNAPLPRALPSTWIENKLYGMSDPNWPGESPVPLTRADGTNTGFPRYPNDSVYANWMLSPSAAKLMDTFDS
In words: KinaseProfiler kinase inhibition assay, Ret. Format: biochemical. The note with it: 1 μM compound.

The next assay concerns AN3_CA. Description: CellTiterblue viability, 72 hr, AN3_CA. In kind it is cell-based. The conditions noted are these: Homo sapiens, AN3-CA, AN3_CA cells. How it is done:
as §1

For a further assay, the system named is KG1a. In words: CellTiterblue viability, 72 hr, KG1a. Format: cell-based. The conditions noted are these: Homo sapiens, KG-1a, KG1a cells. How it is done: as §1
The next assay deals with T4, Tie2 (Homo sapiens, UniProt Q02763).
T4 construct: purchased Millipore (KinaseProfiler Service)
Description: KinaseProfiler kinase inhibition assay, Tie2. Format: biochemical. The note with it: 1 μM compound.

In the next assay the test system is RT112. In words: CellTiterblue viability, 72 hr, RT112. Format: cell-based. The conditions noted are these: Homo sapiens, RT-112, RT112 cells. On the procedure: as §1
The target in a further assay is T5, c-Src kinase (Homo sapiens, UniProt P12931).
T5 construct: purchased Millipore (KinaseProfiler Service)
T5 sequence (P12931 whole entry): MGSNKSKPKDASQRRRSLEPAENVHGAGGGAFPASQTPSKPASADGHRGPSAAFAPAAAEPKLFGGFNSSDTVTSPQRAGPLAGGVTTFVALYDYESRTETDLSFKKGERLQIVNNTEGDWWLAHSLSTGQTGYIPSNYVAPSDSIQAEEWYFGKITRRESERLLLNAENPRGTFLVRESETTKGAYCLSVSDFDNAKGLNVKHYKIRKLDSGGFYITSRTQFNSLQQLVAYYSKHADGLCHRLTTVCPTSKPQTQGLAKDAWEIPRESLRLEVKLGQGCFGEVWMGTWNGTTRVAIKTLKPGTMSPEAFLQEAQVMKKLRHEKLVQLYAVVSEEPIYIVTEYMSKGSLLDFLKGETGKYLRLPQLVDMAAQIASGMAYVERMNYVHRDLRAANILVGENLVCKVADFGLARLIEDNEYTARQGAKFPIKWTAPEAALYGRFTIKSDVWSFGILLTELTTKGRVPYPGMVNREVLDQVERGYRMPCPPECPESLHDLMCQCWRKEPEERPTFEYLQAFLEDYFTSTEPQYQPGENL
In words: KinaseProfiler kinase inhibition assay, c-Src. In kind it is biochemical. The note with it: 1 μM compound; read-out: % Inhibition @1 μM cSrc.

In the next assay the target is T6, phospho-FGFR2 (Homo sapiens, UniProt P21802).
T6 construct: endogenous in cells; host or cells: Kato III cells
T6 sequence (P21802 22-766 isoform P21802-8 limits assumed): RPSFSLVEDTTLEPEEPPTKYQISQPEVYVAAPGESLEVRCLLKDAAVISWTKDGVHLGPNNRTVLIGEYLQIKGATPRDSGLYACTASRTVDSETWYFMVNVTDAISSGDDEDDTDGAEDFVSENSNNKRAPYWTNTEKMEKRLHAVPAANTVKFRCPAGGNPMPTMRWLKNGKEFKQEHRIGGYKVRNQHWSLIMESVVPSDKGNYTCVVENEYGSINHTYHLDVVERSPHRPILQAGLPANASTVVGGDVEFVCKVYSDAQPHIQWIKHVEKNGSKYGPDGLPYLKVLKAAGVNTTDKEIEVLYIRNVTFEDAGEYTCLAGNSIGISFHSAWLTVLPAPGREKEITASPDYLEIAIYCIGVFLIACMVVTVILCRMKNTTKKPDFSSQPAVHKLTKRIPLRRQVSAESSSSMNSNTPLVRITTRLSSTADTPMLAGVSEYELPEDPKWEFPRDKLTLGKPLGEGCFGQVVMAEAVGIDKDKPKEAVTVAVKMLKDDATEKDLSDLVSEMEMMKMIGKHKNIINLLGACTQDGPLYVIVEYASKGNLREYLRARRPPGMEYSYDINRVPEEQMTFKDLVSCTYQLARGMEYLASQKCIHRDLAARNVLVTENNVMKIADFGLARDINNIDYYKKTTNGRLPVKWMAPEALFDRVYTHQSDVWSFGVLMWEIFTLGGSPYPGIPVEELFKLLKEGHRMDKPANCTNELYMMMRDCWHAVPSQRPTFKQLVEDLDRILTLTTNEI
Description: phospho-FGFR ELISA on Kato III cells. Format: cell-based. The note with it: read-out: EC50 (nM) P-FGFR2, Kato III cells. How it is done:
For the phospho-FGFR, the following assay Protocol was used. 25,000 cells are seeded in 90 μl/well in 96-well microplates, which are then placed in a humidified CO2 incubator at 37° C. overnight. 96-well ELISA plates (Mesoscale Discovery) are coated with capture antibody (R&D Systems Duo-Set) at 4 μg/ml, 30 μl/well. The next day, 10 μl/well of 10× concentrated drug is added and the plates are returned to the incubator for […]. ELISA plates are washed using an automated plate washer (BioTek Instruments). After 30 min, cells are inverted and gently tapped to remove excess medium, and immediately placed on ice. 30 μl mPer cell lysis reagent (Thermo Scientific) with protease and phosphatase inhibitors is added/well. After 15 min on ice, lysates are mixed and 30 μl transferred to the ELISA plate. Plates are incubated for 2 hr, washed, and 30 μl/well detection antibody is added. After 1 hr, plates are washed and 30 μl “SulfoTag” (MesoScale Discovery) detection reagent is added. After 1 hr, plates are washed and 150 μl/well read solution is added. Electrochemiluminescence is determined on the Mesoscale Discovery Sector Imager 2000. Data are analyzed using Excel (Microsoft), and EC50 values are determined using Prism (Graphpad).

In the next assay the target is T7, Abl kinase (Homo sapiens, UniProt P00519).
T7 construct: purchased Millipore (KinaseProfiler Service)
Description: KinaseProfiler kinase inhibition assay, Abl. Format: biochemical. The note with it: 1 μM compound.

The next assay has as its target T8, FGFR1 kinase (Homo sapiens, UniProt P11362).
T8 construct: purchased Millipore (KinaseProfiler Service)
Description: KinaseProfiler kinase inhibition assay, FGFR1. The conditions noted are these: 1 μM compound. Format: biochemical.

As a reminder, the GI50 is the concentration that inhibits growth by half. A high value points to less potent growth inhibition. Usually inhibition stands for the change of the read-out against control, counted positive when it falls. By EC50 is commonly meant the concentration giving half of the maximal effect.

T2 sequence (P35968 20-1356): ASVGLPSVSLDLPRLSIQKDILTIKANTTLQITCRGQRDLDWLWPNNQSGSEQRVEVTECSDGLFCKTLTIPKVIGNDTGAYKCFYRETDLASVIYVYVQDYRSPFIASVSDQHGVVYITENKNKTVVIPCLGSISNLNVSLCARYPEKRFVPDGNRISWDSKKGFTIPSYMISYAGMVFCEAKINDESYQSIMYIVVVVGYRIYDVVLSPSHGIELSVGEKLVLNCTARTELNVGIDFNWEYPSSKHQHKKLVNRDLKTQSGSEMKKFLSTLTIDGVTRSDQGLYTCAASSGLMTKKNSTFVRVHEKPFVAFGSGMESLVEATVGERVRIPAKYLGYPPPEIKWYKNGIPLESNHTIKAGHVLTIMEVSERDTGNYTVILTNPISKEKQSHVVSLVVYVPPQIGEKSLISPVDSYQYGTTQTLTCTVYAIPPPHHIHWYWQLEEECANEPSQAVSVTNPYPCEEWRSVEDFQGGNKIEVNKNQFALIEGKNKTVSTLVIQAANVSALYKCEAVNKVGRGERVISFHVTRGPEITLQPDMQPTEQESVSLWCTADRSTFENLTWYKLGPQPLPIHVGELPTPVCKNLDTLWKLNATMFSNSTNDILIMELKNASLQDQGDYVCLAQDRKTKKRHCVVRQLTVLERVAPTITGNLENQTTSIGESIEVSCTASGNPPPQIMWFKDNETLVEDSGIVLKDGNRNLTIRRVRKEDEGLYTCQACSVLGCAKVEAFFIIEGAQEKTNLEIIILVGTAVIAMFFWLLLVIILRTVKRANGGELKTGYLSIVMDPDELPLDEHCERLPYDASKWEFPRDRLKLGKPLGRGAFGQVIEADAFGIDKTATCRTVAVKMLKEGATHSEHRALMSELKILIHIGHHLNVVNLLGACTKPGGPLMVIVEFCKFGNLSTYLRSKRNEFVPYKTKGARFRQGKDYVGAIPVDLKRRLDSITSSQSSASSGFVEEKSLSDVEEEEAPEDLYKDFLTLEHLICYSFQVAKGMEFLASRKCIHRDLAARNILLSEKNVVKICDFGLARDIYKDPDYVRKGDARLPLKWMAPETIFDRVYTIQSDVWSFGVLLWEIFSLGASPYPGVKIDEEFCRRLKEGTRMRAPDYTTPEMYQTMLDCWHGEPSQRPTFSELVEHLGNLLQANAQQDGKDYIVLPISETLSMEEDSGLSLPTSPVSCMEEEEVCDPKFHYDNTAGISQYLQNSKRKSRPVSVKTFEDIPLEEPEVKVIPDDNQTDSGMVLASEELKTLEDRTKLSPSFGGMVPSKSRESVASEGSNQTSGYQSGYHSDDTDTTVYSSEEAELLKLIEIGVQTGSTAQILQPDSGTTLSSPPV
T8 sequence (P11362 22-822): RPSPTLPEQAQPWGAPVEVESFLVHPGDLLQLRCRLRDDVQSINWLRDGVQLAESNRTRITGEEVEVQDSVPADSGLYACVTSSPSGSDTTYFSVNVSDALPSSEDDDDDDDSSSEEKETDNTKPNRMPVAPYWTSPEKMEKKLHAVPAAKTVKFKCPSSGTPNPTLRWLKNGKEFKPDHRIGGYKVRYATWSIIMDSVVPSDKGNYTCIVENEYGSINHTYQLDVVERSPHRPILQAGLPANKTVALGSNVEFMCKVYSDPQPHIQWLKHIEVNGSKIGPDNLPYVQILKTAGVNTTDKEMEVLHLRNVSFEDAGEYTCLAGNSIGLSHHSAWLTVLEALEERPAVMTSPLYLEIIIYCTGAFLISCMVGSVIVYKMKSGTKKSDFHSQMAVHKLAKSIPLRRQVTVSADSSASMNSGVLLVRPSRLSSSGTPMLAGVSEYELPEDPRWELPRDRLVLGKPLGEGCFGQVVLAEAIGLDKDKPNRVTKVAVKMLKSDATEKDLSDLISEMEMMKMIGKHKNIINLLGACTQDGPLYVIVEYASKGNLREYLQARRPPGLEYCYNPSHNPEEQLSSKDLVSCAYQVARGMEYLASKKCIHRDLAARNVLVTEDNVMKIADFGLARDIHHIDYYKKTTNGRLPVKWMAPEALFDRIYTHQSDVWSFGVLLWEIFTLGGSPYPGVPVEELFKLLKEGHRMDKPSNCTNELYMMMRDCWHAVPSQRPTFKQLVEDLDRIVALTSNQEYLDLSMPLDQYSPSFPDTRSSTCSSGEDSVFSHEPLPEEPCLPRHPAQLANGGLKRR

For the compound `Cc1cc2c(F)c(Oc3ncnc(Nc4ccc(N5CCN(C)CC5)cn4)c3Cl)ccc2[nH]1` [Compound 34, 5-chloro-6-((4-fluoro-2-methyl-1H-indol-5-yl)oxy)-N-(5-(4-methylpiperazin-1-yl)pyridin-2-yl)pyrimidin-4-amine], the GI50 is 229 nM in the assay on Kato III, > 500 nM in the assay with AN3_CA, > 100 nM in the assay with KG1a and > 100 nM with RT112. Further, the inhibition at 1 µM amounted to 15% at Alk kinase; 96% against KDR kinase; 25% on Ret kinase; 18% on Tie2; 9% on c-Src kinase; 19% on Abl kinase. For the same compound, on FGFR1 kinase, the inhibition at 1 µM amounted to 98%. Also, the concentration giving a half-maximal response (EC50) at phospho-FGFR2 was > 100 nM.

With `Cc1cc2c(F)c(Oc3cc(Nc4ccc(N5CCN(C)CC5)c(F)c4)ncn3)ccc2[nH]1` [Example 14], the concentration for 50% growth inhibition (GI50) was > 500 nM in the assay with Kato III, 483 nM in the assay with AN3_CA, > 100 nM in the assay on KG1a and > 100 nM in the assay on RT112. In addition, the inhibition at 1 µM against Alk kinase turned out to be 53%; against KDR kinase it was 97%; against Ret kinase it was 48%; at Tie2, 31%; at c-Src kinase it was 35%; on Abl kinase, 32%. Also, the inhibition at 1 µM against FGFR1 kinase is 97%. For the same compound, the EC50 on phospho-FGFR2 was > 100 nM.

As to `Cc1cc2c(F)c(Oc3cc(Nc4cc(-c5ccccn5)[nH]n4)ncn3)ccc2[nH]1` [Example 6], the 50% growth inhibitory concentration (GI50) in the assay with Kato III was > 500 nM; in the assay with AN3_CA, 573 nM; with KG1a it was > 100 nM; with RT112 it was > 100 nM. Besides, the inhibition at 1 µM against Alk kinase stood at 6%; on KDR kinase, 97%; against Ret kinase, 78%; at Tie2 it was 59%; on c-Src kinase, 47%; on Abl kinase, 62%. Further, on FGFR1 kinase, the inhibition at 1 µM was found to be 95%. For the same compound, the concentration for a half-maximal effect (EC50) at phospho-FGFR2 was > 100 nM.

Regarding `Cc1cc2c(F)c(Oc3cc(Nc4ccc(N5CCNCC5)cc4)ncn3)ccc2[nH]1` [Example 11], the 50% growth inhibitory concentration (GI50) in the assay on Kato III is > 500 nM; in the assay on AN3_CA, > 500 nM; with KG1a, > 100 nM; with RT112, > 100 nM. Further, the inhibition at 1 µM against Alk kinase is 70%; against KDR kinase it was 96%; at Ret kinase, 67%; against Tie2, 92%; at c-Src kinase, 59%; against Abl kinase it was 60%. At FGFR1 kinase, the inhibition at 1 µM came to 99%. At phospho-FGFR2, the 50% effective concentration (EC50) amounted to 96 nM.

As to `COc1ccc(-c2cc(Nc3cc(Oc4ccc5[nH]c(C)cc5c4F)ncn3)n[nH]2)cc1OC` [Example 5], the GI50 in the assay on Kato III was > 500 nM; in the assay with AN3_CA it was 211 nM; in the assay on KG1a it was > 100 nM; in the assay on RT112 it was > 100 nM. Moreover, the inhibition at 1 µM against Alk kinase was -10%; against KDR kinase, 97%; against Ret kinase, 77%; at Tie2, 45%; on c-Src kinase, 65%; against Abl kinase, 63%. For the same compound, the inhibition at 1 µM at FGFR1 kinase was 93%. The EC50 on phospho-FGFR2 was > 100 nM.

With `Cc1cc2c(F)c(Oc3cc(Nc4cc(-c5ccco5)[nH]n4)ncn3)ccc2[nH]1` [Example 20], the inhibition at 1 µM against Alk kinase was found to be 3%; at KDR kinase it was 88%; against Ret kinase it was 78%; against Tie2 it was 47%; on c-Src kinase it was 24%; on Abl kinase, 36%. For the same compound, the inhibition at 1 µM against FGFR1 kinase came to 92%. Moreover, the results for the concentration for 50% growth inhibition (GI50) with AN3_CA, in the assay on KG1a and with RT112 were > 500 nM, > 100 nM and > 100 nM, respectively. Further, the concentration giving a half-maximal response (EC50) on phospho-FGFR2 was > 100 nM.

For `Cc1cc2c(F)c(Oc3cc(Nc4ccc(N5CCN(C)CC5)cc4)ncn3)ccc2[nH]1` [Example 2], the 50% growth inhibitory concentration (GI50) in the assay on Kato III was 165 nM; in the assay with AN3_CA it was 490 nM; in the assay with KG1a, > 100 nM; in the assay on RT112 it was > 100 nM. For the same compound, the inhibition at 1 µM is 3% on Alk kinase; 97% at KDR kinase; 75% against Ret kinase; 58% against Tie2; 47% on c-Src kinase; 45% on Abl kinase. Further, the inhibition at 1 µM at FGFR1 kinase is 102%. At phospho-FGFR2, the EC50 was 88 nM.

In the case of `Cc1cc2c(F)c(Oc3cc(Nc4cc(C5CC5)[nH]n4)ncn3)ccc2[nH]1` [Example 16], the inhibition at 1 µM came out at 2% against Alk kinase; 90% against KDR kinase; 79% on Ret kinase; 75% at Tie2; 54% at c-Src kinase; 64% at Abl kinase. For the same compound, the inhibition at 1 µM against FGFR1 kinase stood at 92%. In addition, the GI50 is > 500 nM in the assay with AN3_CA, > 100 nM with KG1a and > 100 nM in the assay on RT112. Moreover, on phospho-FGFR2, the half-maximal effective concentration (EC50) was > 100 nM.

As to `C/C=C/c1cc(Nc2cc(Oc3ccc4[nH]c(C)cc4c3F)ncn2)n[nH]1` [Example 17], the inhibition at 1 µM on Alk kinase worked out at 2%; at KDR kinase, 90%; at Ret kinase, 73%; against Tie2, 37%; at c-Src kinase, 21%; against Abl kinase it was 42%. In addition, the inhibition at 1 µM on FGFR1 kinase worked out at 95%. Further, the GI50 in the assay on AN3_CA is > 500 nM; in the assay with KG1a, > 100 nM; in the assay with RT112 it was > 100 nM. For the same compound, the 50% effective concentration (EC50) on phospho-FGFR2 is > 100 nM.

On to `CCN1CCN(c2ccc(Nc3ncnc(Oc4ccc5[nH]c(C)cc5c4F)c3F)cc2)CC1` [Example 25], for which the concentration for 50% growth inhibition (GI50) was > 500 nM in the assay with Kato III, > 500 nM with AN3_CA, > 100 nM in the assay on KG1a and > 100 nM in the assay with RT112. For the same compound, the inhibition at 1 µM at Alk kinase was 69%; on KDR kinase it was 95%; on Ret kinase, -11%; against Tie2 it was 0%; at c-Src kinase, 11%; at Abl kinase, 7%. Further, the inhibition at 1 µM at FGFR1 kinase came out at 96%. For the same compound, at phospho-FGFR2, the 50% effective concentration (EC50) is > 100 nM.

Regarding `Cc1cc2c(F)c(Oc3cc(Nc4ccc(N5CCNCC5)cc4)ncn3)cc(F)c2[nH]1` [Compound 51], the concentration for 50% growth inhibition (GI50) was 169 nM in the assay on Kato III, 406 nM in the assay with AN3_CA, > 100 nM in the assay with KG1a and > 100 nM in the assay on RT112. Also, the inhibition at 1 µM against Alk kinase came to 54%; against KDR kinase it was 97%; at Ret kinase, 74%; against Tie2 it was 82%; on c-Src kinase it was 70%; at Abl kinase, 73%. The inhibition at 1 µM against FGFR1 kinase came to 101%. For the same compound, the EC50 at phospho-FGFR2 worked out at 38 nM.

Regarding `CCN1CCN(c2ccc(Nc3cc(Oc4ccc5[nH]c(C)cc5c4F)ncn3)cc2)CC1` [Example 3], the inhibition at 1 µM at Alk kinase was -2%; at KDR kinase, 97%; against Ret kinase it was 75%; against Tie2, 61%; on c-Src kinase it was 46%; on Abl kinase it was 47%. Besides, on FGFR1 kinase, the inhibition at 1 µM worked out at 102%. Besides, the values for the GI50 in the assay with AN3_CA, with KG1a and in the assay with RT112 were > 500 nM, > 100 nM and > 100 nM, respectively. Further, the EC50 on phospho-FGFR2 amounted to 93 nM.

On to `Cc1cc2c(F)c(Oc3cc(Nc4ccc(N5CCN(C)CC5)cn4)ncn3)ccc2[nH]1` [Example 15], for which the GI50 was 290 nM with Kato III, 332 nM in the assay on AN3_CA, > 100 nM in the assay on KG1a and > 100 nM in the assay with RT112. Besides, the inhibition at 1 µM against Alk kinase amounted to 32%; at KDR kinase, 97%; against Ret kinase, 79%; against Tie2 it was 82%; on c-Src kinase it was 78%; on Abl kinase it was 84%. Also, the inhibition at 1 µM on FGFR1 kinase stood at 100%. Also, the EC50 at phospho-FGFR2 turned out to be 36 nM.
